Calls of active or inactive are those of the source.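 Rule for the calls: active = survival over 30 points above compound-free thapsigargin wells at any thapsigargin dose; inactive = the rest.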
Test system: Jurkat, thapsigargin-induced death, ATPlite luminescence, 24 h
Test: ER stress cell death suppression in Jurkat – Jurkat T-cell leukemia, ATP content luminescence (AID 1354)
Conditions: at 25 µM, stronger effect = higher value
[1] = measured here: survival at thapsigargin 10 uM
[2] = measured here: survival at thapsigargin 15 uM

For `COc1ccc(C2CC(=O)C3=C(C2)Nc2ccccc2NC3c2cc(C)ccc2C)cc1` (stereo not drawn), the survival (thapsigargin 7.5 uM) was 54% (inactive), the survival [1] was 37% and the survival [2] was 2%.

With `COc1ccc(C2CC(=O)C3=C(C2)Nc2ccccc2NC3c2cccc(Br)c2)cc1OC` (stereo not drawn) the survival (thapsigargin 7.5 uM) was 34% (inactive), the survival [1] was 18% and the survival [2] was 1%.

`COc1ccc(C2CC(=O)C3=C(C2)Nc2ccccc2NC3c2cccc(Oc3ccccc3)c2)cc1OC` (stereo not drawn) was tested, and the survival (thapsigargin 7.5 uM) was 51% (inactive), the survival [1] was 37% and the survival [2] was 7%.

In the case of `CSc1ccc(C2Nc3ccccc3NC3=C2C(=O)CC(c2ccccc2)C3)cc1` (stereo not drawn), the survival (thapsigargin 7.5 uM) was 44% (inactive), the survival [1] was 23% and the survival [2] was 4%.

`COc1ccc(C2CC(=O)C3=C(C2)Nc2ccccc2NC3c2ccccc2C(F)(F)F)cc1OC` (stereo not drawn) was tested, and the survival (thapsigargin 7.5 uM) was 44% (inactive), the survival [1] was 32% and the survival [2] was 2%.

For `CCCOc1ccc(C2Nc3ccccc3NC3=C2C(=O)CC(c2ccc(OC)c(OC)c2)C3)cc1` (stereo not drawn), the survival (thapsigargin 7.5 uM) was 44% (inactive), the survival [1] was 17% and the survival [2] was 1%.

In the case of `CCOc1cccc(C2Nc3ccccc3NC3=C2C(=O)CC(c2ccc(OC)cc2)C3)c1` (stereo not drawn), the survival (thapsigargin 7.5 uM) was 46% (inactive), the survival [1] was 32% and the survival [2] was 1%.

For `COc1ccc(C2CC(=O)C3=C(C2)Nc2ccccc2NC3c2cccc(C(F)(F)F)c2)cc1OC` (stereo not drawn), the survival (thapsigargin 7.5 uM) was 42% (inactive), the survival [1] was 19% and the survival [2] was 1%.

For `CC1(C)CC(=O)C2=C(C1)Nc1ccccc1NC2c1ccc(-c2ccccc2)cc1` (stereo not drawn), the survival (thapsigargin 7.5 uM) was 14% (inactive), the survival [1] was 3% and the survival [2] was 0%.

With `O=C1CC(c2ccccc2)CC2=C1C(c1c(F)cccc1Cl)Nc1ccccc1N2` (stereo not drawn) the survival (thapsigargin 7.5 uM) was 39% (inactive), the survival [1] was 23% and the survival [2] was 1%.

For `CCOc1cc(C2Nc3ccccc3NC3=C2C(=O)CC(c2ccc(OC)cc2)C3)cc(Cl)c1O` (stereo not drawn), the survival (thapsigargin 7.5 uM) was 55% (inactive), the survival [1] was 35% and the survival [2] was 2%.
